In patent publication US7425551B2, “Malonamide derivatives” (Hoffmann-La Roche Inc., priority 2006, dated 2008) one finds IC50 and melting point data, which are given here for four molecules.

The target in one series is T1, γ-secretase (Homo sapiens, UniProt P49768).
T1 construct: uses a HEK293 membrane fraction as a source of γ-secretase; endogenous in cells; host or cells: HEK293 (microsomal membrane fraction, solubilised in 0.25% CHAPSO)
Nature of the series: in vitro assay of γ-secretase activity (HEK293 membrane fraction, recombinant APP substrate, Abeta ELISA). As to conditions: γ-secretase inhibition; HEK293 membrane fraction solubilized in 0.25% CHAPSO, recombinant human APP C-terminal 100 amino acids substrate, Abeta detected by ELISA. Format: biochemical. An outline of the steps:
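The microsomal fraction of HEK293 cells was solubilized in 0.25% CHAPSO and incubated with a His-tagged C-terminal 100-residue human APP fragment expressed in E. coli. Abeta peptides produced by cleavage were quantified by specific ELISA.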
(An ELISA detects its analyte on a solid surface through an enzyme-linked reagent.)

Where “and” joins values, the source holds several entries; their conditions need not be identical. Identical values can stand only once.

As for `C[C@H](OC(=O)NCCC(F)(F)C(F)(F)F)C(=O)N[C@@H]1C(=O)N(CCO)c2ccccc2-c2ccccc21` [Example 38, (3,3,4,4,4-Pentafluoro-butyl)-carbamic acid (S)-1-[(S)-5-(2-hydroxy-ethyl)-6-oxo-6,7-dihydro-5H-dibenzo[b,d]azepin-7-ylcarbamoyl]-ethyl ester], the melting point (usually the temperature, or range, at which the solid turns liquid) was in the range of 181 to 184 °C. For the same molecule, the IC50 (commonly the midpoint of a concentration-inhibition curve) on γ-secretase is 12 nM.

With `CC(O)(C(=O)NCCC(F)(F)F)C(=O)N[C@@H]1C(=O)N(CCO)c2ccccc2-c2ccccc21` (stereo partly drawn) [Example 64, 2-Hydroxy-N—[(S)-5-(2-hydroxy-ethyl)-6-oxo-6,7-dihydro-5H-dibenzo[b,d]azepin-7-yl]-2-methyl-N′-(3,3,3-trifluoro-propyl)-malonamide], the melting point is 61 to 69 °C and 59 to 62 °C and 64 to 71 °C. Moreover, the IC50 at γ-secretase was determined as 10 nM.

Consider `CCOCCN1C(=O)[C@@H](NC(=O)C(C)(C)C(=O)NCC(F)(F)C(F)(F)F)c2ccccc2-c2ccccc21` [Example 71, N—[(S)-5-(2-Ethoxy-ethyl)-6-oxo-6,7-dihydro-5H-dibenzo[b,d]azepin-7-yl]-2,2-dimethyl-N′-(2,2,3,3,3-pentafluoro-propyl)-malonamide], for which the IC50 on γ-secretase was found to be 6 nM.

On to `CC(C)(C(=O)NCC(F)(F)C(F)(F)F)C(=O)N[C@@H]1C(=O)N(CC(O)C(F)(F)F)c2ccccc2-c2ccccc21` (stereo partly drawn) [Example 72, 2,2-Dimethyl-N—[(S)-6-oxo-5-(3,3,3-trifluoro-2-hydroxy-propyl)-6,7-dihydro-5H-dibenzo[b,d]azepin-7-yl]-N′-(2,2,3,3,3-pentafluoro-propyl)-malonamide], for which the IC50 on γ-secretase turned out to be 1 nM.
